Data taken from patent US20080200448A1, “New Pyridine Analogues VIII 518” (ASTRAZENECA AB, priority 2007, published 2008).

Biological target: T1, P2Y12 receptor (Homo sapiens, UniProt Q9H244)
T1 construct: expressed in transfected cells; host or cells: CHO cells (membrane preparation)
Assay: Functional inhibition of 2-Me-S-ADP induced P2Y12 signalling (35S-GTPγS binding, cell membranes)
Type: biochemical
Conditions: 35S-GTPγS assay, membranes, EC80 concentration of 2-methyl-thio-adenosine diphosphate, 30° C. for 45 min; read-out: GTPγS (IC50 μM)
Procedure: Functional inhibition of- the P2Y12 receptor can be measured by in vitro assays using cell membranes from P2Y12 transfected CHO-cells, the methodology is indicated below.
Functional inhibition of 2-Me-S-ADP induced P2Y12 signalling: 5 μg of membranes were diluted in 200 μl of 200 mM NaCl, 1 mM MgCl2, 50 mM HEPES (pH 7.4), 0.01% BSA, 30 μg/ml saponin and 10 μM GDP. To this was added an EC80 concentration of agonist (2-methyl-thio-adenosine diphosphate), the required concentration of test compound and 0.1 μCi ^35S-GTPγS. The reaction was allowed to proceed at 30° C. for 45 min. Samples were then transferred on to GF/B filters using a cell harvester and washed with wash buffer (50 mM Tris (pH 7.4), 5 mM MgCl2, 50 mM NaCl). Filters were then covered with scintilant and counted for the amount of ^35S-GTPγS retained by the filter. Maximum activity was that determined in the presence of the agonist and minimum activity in the absence of the agonist following subtraction of the value determined for non-specific activity. The effect of compounds at various concentrations was plotted according to the equation
y=A+((B−A)/(1+((C/x)̂D)))
and IC50 estimated where A is the bottom plateau of the curve i.e. the final minimum y value B is the top of the plateau of the curve i.e. the final maximum y value C is the x value at the middle of the curve. This represents the log EC50 value when A+B=100 D is the slope factor. x is the original known x values. Y is the original known y values.

T1 sequence (Q9H244 whole entry): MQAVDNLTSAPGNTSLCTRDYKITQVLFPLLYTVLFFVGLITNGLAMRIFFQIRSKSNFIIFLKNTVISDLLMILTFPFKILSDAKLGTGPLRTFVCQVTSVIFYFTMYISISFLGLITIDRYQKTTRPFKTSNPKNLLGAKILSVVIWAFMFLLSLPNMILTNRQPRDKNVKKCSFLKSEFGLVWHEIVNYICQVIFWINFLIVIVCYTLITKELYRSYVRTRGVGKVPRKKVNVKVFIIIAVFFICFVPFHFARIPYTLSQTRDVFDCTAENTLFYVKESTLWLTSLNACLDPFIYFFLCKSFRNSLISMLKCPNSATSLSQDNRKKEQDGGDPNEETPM

Compound | IC50
CCOC(=O)c1cc(Cl)c(N2CCC(C(=O)NS(=O)(=O)CC3CCCCC3)CC2)nc1CN1CCCC1=O [Example 94, Ethyl 5-chloro-6-(4-{[(cyclohexylmethyl)sulfonyl]carbamoyl}piperidin-1-yl)-2-[(2-oxopyrrolidin-1-yl)methyl]nicotinate] | 0.194 µM
CCOC(=O)c1cc(C#N)c(N2CCC(C(=O)NS(=O)(=O)Cc3ccc(OC)cc3)CC2)nc1CN1CCCCC1=O [Example 68, Ethyl 5-cyano-6-(4-{[(4-methoxybenzyl)sulfonyl]carbamoyl}piperidin-1-yl)-2-[(2-oxopiperidin-1-yl)methyl]nicotinate] | 0.024 µM
CCOC(=O)c1cc(C#N)c(N2CCC(C(=O)NS(=O)(=O)Cc3ccccc3)CC2)nc1OCCCC(C)=O [Example 121, Ethyl 6-{4-[(benzylsulfonyl)carbamoyl]piperidin-1-yl}-5-cyano-2-[(4-oxopentyl)oxy]nicotinate] | 0.017 µM
CCOC(=O)c1cc(C#N)c(N2CC(C(=O)NS(=O)(=O)Cc3ccccc3)C2)nc1COC(C)=O [Example 7, Ethyl 2-(acetoxymethyl)-6-{3-[(benzylsulfonyl)carbamoyl]azetidin-1-yl}-5-cyanonicotinate] | 0.076 µM
CCOC(=O)c1cc(C#N)c(N2CCC(C(=O)NS(=O)(=O)Nc3ccc(F)cc3)CC2)nc1CN1CCCC1=O [Example 77, Ethyl 5-cyano-6-[4-({[(4-fluorophenyl)amino]sulfonyl}carbamoyl)piperidin-1-yl]-2-[(2-oxopyrrolidin-1-yl)methyl]nicotinate] | 0.017 µM
CCOC(=O)c1cc(C#N)c(N2CC(C(=O)NS(=O)(=O)Cc3ccccc3)C2)nc1CSCCNC(C)=O [Example 32, Ethyl 2-{[(2-acetamidoethyl)thio]methyl}-6-{3-[(benzylsulfonyl)carbamoyl]azetidin-1-yl}-5-cyanonicotinate] | 0.081 µM
CC(C)OC(=O)c1cc(C#N)c(N2CCC(C(=O)NS(=O)(=O)Cc3ccccc3)CC2)nc1CN1CCCC1=O [Example 34, Isopropyl 6-{4-[(benzylsulfonyl)carbamoyl]piperidin-1-yl}-5-cyano-2-[(2-oxopyrrolidin-1-yl)methyl]nicotinate] | 0.033 µM
CCOC(=O)c1cc(C#N)c(N2CC(C(=O)NS(=O)(=O)Cc3ccccc3)C2)nc1CN(C)C [Example 6, Ethyl 6-{3-[(benzylsulfonyl)carbamoyl]azetidin-1-yl}-5-cyano-2-[(dimethylamino)methyl]nicotinate] | 1.07 µM
CC(C)OC(=O)c1cc(C#N)c(N2CCC(C(=O)NS(=O)(=O)Cc3ccc(F)cc3Cl)CC2)nc1CN1CCCC1=O [Example 49, Isopropyl 6-(4-{[(2-chloro-4-fluorobenzyl)sulfonyl]carbamoyl}piperidin-1-yl)-5-cyano-2-[(2-oxopyrrolidin-1-yl)methyl]nicotinate] | 0.066 µM
CCOC(=O)c1cc(C#N)c(N2CCC(C(=O)NS(=O)(=O)Cc3ccccc3)CC2)nc1OCC(=O)O [Example 24, {[6-{4-[(Benzylsulfonyl)carbamoyl]piperidin-1-yl}-5-cyano-3-(ethoxycarbonyl)pyridin-2-yl]oxy}acetic acid] | 0.025 µM
CCOC(=O)c1cc(C#N)c(N2CCC(C(=O)NS(=O)(=O)N(C)c3ccc(F)cc3)CC2)nc1CN1CCCC1=O [Example 76, Ethyl 5-cyano-6-[4-({[(4-fluorophenyl)(methyl)amino]sulfonyl}carbamoyl)piperidin-1-yl]-2-[(2-oxopyrrolidin-1-yl)methyl]nicotinate] | 0.0073 µM
CCOC(=O)c1cc(C#N)c(N2CCC(C(=O)NS(=O)(=O)Cc3ccccc3)CC2)nc1OCC(N)=O [Example 22, Ethyl 2-(2-amino-2-oxoethoxy)-6-{4-[(benzylsulfonyl)carbamoyl]piperidin-1-yl}-5-cyanonicotinate] | 0.072 µM
CCOC(=O)c1cc(C#N)c(N2CCC(C(=O)NS(=O)(=O)Cc3ccccc3)CC2)nc1OCC1CCO1 (centres unmarked) [Example 23, Ethyl 6-{4-[(benzylsulfonyl)carbamoyl]piperidin-1-yl}-5-cyano-2-(oxetan-2-ylmethoxy)nicotinate] | 0.048 µM
CCOC(=O)c1cc(C#N)c(N2CCC(C(=O)NS(=O)(=O)Cc3ccccc3)CC2)nc1SCC(=O)N1CCC1 [Example 124, Ethyl 2-[(2-azetidin-1-yl-2-oxoethyl)thio]-6-{4-[(benzylsulfonyl)carbamoyl]piperidin-1-yl}-5-cyanonicotinate] | 0.013 µM
CCOC(=O)c1cc(C#N)c(N2CCC(C(=O)NS(=O)(=O)Cc3ccccc3)CC2)nc1CSCC [Example 27, Ethyl 6-{4-[(benzylsulfonyl)carbamoyl]piperidin-1-yl}-5-cyano-2-[(ethylthio)methyl]nicotinate] | 0.057 µM
CCOC(=O)c1cc(C#N)c(N2CCC(C(=O)NS(=O)(=O)Cc3ccc(C)cc3)CC2)nc1CN1CCCCC1=O [Example 63, Ethyl 5-cyano-6-(4-{[(4-methylbenzyl)sulfonyl]carbamoyl}piperidin-1-yl)-2-[(2-oxopiperidin-1-yl)methyl]nicotinate] | 0.014 µM
CCOC(=O)c1cc(Cl)c(N2CCC(C(=O)NS(=O)(=O)N(C)c3ccccc3)CC2)nc1CN1CCCC1=O [Example 93, Ethyl 5-chloro-6-[4-({[methyl(phenyl)amino]sulfonyl}carbamoyl)piperidin-1-yl]-2-[(2-oxopyrrolidin-1-yl)methyl]nicotinate] | 0.062 µM
CCOC(=O)c1cc(C#N)c(N2CCC(C(=O)NS(=O)(=O)Cc3ccccc3)CC2)nc1CN1CCCC1=O [Example 33, Ethyl 6-{4-[(benzylsulfonyl)carbamoyl]piperidin-1-yl}-5-cyano-2-[(2-oxopyrrolidin-1-yl)methyl]nicotinate] | 0.0097 µM
CCOC(=O)c1cc(C#N)c(N2CCC(C(=O)NS(=O)(=O)Cc3ccc(C(F)(F)F)cc3)CC2)nc1CN1CCCC1=O [Example 35, Ethyl 5-cyano-2-[(2-oxopyrrolidin-1-yl)methyl]-6-[4-({[4-(trifluoromethyl)benzyl]sulfonyl}carbamoyl)piperidin-1-yl]nicotinate] | 0.0097 µM
CCOC(=O)c1cc(C#N)c(N2CCC(C(=O)NS(=O)(=O)Cc3ccccc3)CC2)nc1OCCC#N [Example 17, Ethyl 6-{4-[(benzylsulfonyl)carbamoyl]piperidin-1-yl}-5-cyano-2-(2-cyanoethoxy)nicotinate] | 0.027 µM
CC(C)OC(=O)c1cc(C#N)c(N2CCC(C(=O)NS(=O)(=O)N(C)c3ccccc3)CC2)nc1CN1CCCC1=O [Example 78, Isopropyl 5-cyano-6-[4-({[methyl(phenyl)amino]sulfonyl}carbamoyl)piperidin-1-yl]-2-[(2-oxopyrrolidin-1-yl)methyl]nicotinate] | 0.021 µM
CCOC(=O)c1cc(Br)c(N2CCC(C(=O)NS(=O)(=O)Cc3ccccc3)CC2)nc1CN1CCCC1=O [Example 84, Ethyl 6-{4-[(benzylsulfonyl)carbamoyl]piperidin-1-yl}-5-bromo-2-[(2-oxopyrrolidin-1-yl)methyl]nicotinate] | 0.031 µM
CCOC(=O)c1cc(C#N)c(N2CCC(C(=O)NS(=O)(=O)Cc3ccccc3)CC2)nc1COC(C)=O [Example 5, Ethyl 2-(acetoxymethyl)-6-{4-[(benzylsulfonyl)carbamoyl]piperidin-1-yl}-5-cyanonicotinate] | 0.044 µM
CCOC(=O)c1cc(C#N)c(N2CCC(C(=O)NS(=O)(=O)Cc3ccccc3)CC2)nc1OCCNC(C)=O [Example 20, Ethyl 2-(2-acetamidoethoxy)-6-{4-[(benzylsulfonyl)carbamoyl]piperidin-1-yl}-5-cyanonicotinate] | 0.038 µM
CCOC(=O)c1cc(C#N)c(N2CCC(C(=O)NS(=O)(=O)Nc3ccccc3)CC2)nc1CN1CCCC1=O [Example 55, Ethyl 6-{4-[(anilinosulfonyl)carbamoyl]piperidin-1-yl}-5-cyano-2-[(2-oxopyrrolidin-1-yl)methyl]nicotinate] | 0.03 µM
CCOC(=O)c1cc(C#N)c(N2CCC(C(=O)NS(=O)(=O)CC3CCCC3)CC2)nc1CN1CCCC1=O [Example 36, Ethyl 5-cyano-6-(4-{[(cyclopentylmethyl)sulfonyl]carbamoyl}piperidin-1-yl)-2-[(2-oxopyrrolidin-1-yl)methyl]nicotinate] | 0.017 µM
CCOC(=O)c1cc(Cl)c(N2CCC(C(=O)NS(=O)(=O)Nc3ccc(F)cc3)CC2)nc1CN1CCCC1=O [Example 91, Ethyl 5-chloro-6-[4-({[(4-fluorophenyl)amino]sulfonyl}carbamoyl)piperidin-1-yl]-2-[(2-oxopyrrolidin-1-yl)methyl]nicotinate] | 0.145 µM
CC(C)OC(=O)c1cc(Cl)c(N2CCC(C(=O)NS(=O)(=O)Cc3ccccc3)CC2)nc1CN1CCCC1=O [Example 96, Isopropyl 6-{4-[(benzylsulfonyl)carbamoyl]piperidin-1-yl}-5-chloro-2-[(2-oxopyrrolidin-1-yl)methyl]nicotinate] | 0.178 µM
COc1ccc(CS(=O)(=O)NC(=O)C2CCN(c3nc(CN4CCCC4=O)c(C(=O)OC(C)C)cc3C#N)CC2)cc1 [Example 83, Isopropyl 5-cyano-6-(4-{[(4-methoxybenzyl)sulfonyl]carbamoyl}piperidin-1-yl)-2-[(2-oxopyrrolidin-1-yl)methyl]nicotinate] | 0.016 µM
